In patent US20070238725A1, “Therapeutic combinations for the treatment or prevention of psychotic disorders” (Wyeth, priority 2006, published 2007):
Like-named read-outs stand apart in the source and are kept apart here.

Assays:
[1] = test system: conditioned avoidance responding; assay: Conditioned avoidance responding; assay type: in vivo; details: rats
Experimental: (Compound 2, “cpd 2”) to exemplify, the present Example describes an experiment to determine the effect of co-administration of haloperidol (0.54 mg/kg, i.p. 30′ pretreatment) or clozapine (5.4 mg/kg, i.p., 30′ pretreatment) and compound 1 (0.54 mg/kg, i.p., 30′ pretreatment) or compound 2 (1 mg/kg, i.p. 30′ pretreatment) on conditioned avoidance responding.
Male rats had been trained to a stable criterion performance of 90% avoidance responding and had been used in previous drug studies. The dosing plan was a within subject pseudo random design so that all rats received all treatments over several weeks. On test days in experiments 1 and 2 the rats were dosed with vehicle, Compound 1, haloperidol or clozapine or a combination of Compound 1/haloperidol or Compound 1/clozapine. On test days in experiments 3 and 4 the rats were dosed with vehicle, Compound 2, haloperidol or clozapine or a combination of Compound 2/haloperidol or Compound 2/clozapine. Conditioned avoidance testing commenced 30 minutes after treatment and the rats received 50 trials and the number of avoidance, escape and no response trials was recorded.

[2] = test system: apomorphine-induced climbing; assay: Apomorphine-induced climbing in mice; assay type: in vivo; details: for block of apomorphine-induced climbing: versus either compound alone; for ED50: Mus musculus, read-out: ED50 for apomorphine block; for dose for increased efficacy with co-administration: co-administration with haloperidol
Experimental: (Compound 2, “cpd 2”) to exemplify, the present Example describes four experiments in which a compound of formula I, was administered in combination with either a typical (exemplified by haloperidol) or atypical (exemplified by clozapine). The combination reduced apomorphine-induced climbing without side effects.
(§1) Mice were acclimated to the climbing cages for at least 1 hour and then dosed with either the vehicle or a dose of haloperidol or clozapine followed by a dose of either vehicle or a dose of Compound 1. Thirty minutes after dosing all mice received 1 mg/kg, s.c. apomorphine and returned to the climbing cages. Five minutes after apomorphine the mice were observed and scored for climbing and stereotypy every 5 minutes for the 30 minute test session.

stereotypy = assay: Apomorphine-induced stereotypy scored in the climbing test; assay type: in vivo, mice
Experimental: as §1

[3] = test system: haloperidol induced catalepsy; assay: Catalepsy (bar test), extra-pyramidal side effect liability; assay type: in vivo, mice; details: for dose for increased EPS liability with co-administration: co-administration with haloperidol, mice
Experimental: (Compound 2, “cpd 2”) to exemplify, the present Example describes an experiment in which a compound of formula I was administered in combination with haloperidol to assess extra-pyramidal side effect liability, as represented by cataleptic behavior. [table] [table] [table] Mice were dosed with either the vehicle or a dose of haloperidol followed by a dose of either vehicle or a dose of Compound 1 or Compound 2. Thirty, 60, 90 and 120 minutes after dosing, the forelegs are draped over a thin horizontal rod 1.75″ high. The number of seconds up to 60 sec for which the mouse remains on the bar is recorded at each test point and presented as the percent of maximum possible response (60 sec).

[4] = administered individually, 0.54 mg/kg i.p., 30 min pretreatment
[5] = sc, 0.5 h, compound alone, mice, apomorphine 1 mg/kg s.c. 30 min after dosing

In the case of O=C(CCCN1CCC(O)(c2ccc(Cl)cc2)CC1)c1ccc(F)cc1 [haloperidol, 4-[4-(4-chlorophenyl)-4-hydroxy-1-piperidinyl]-1-(4-fluoro-phenyl)-1-butanone, reference compound], the “decrease in avoidance responding” value [1, 4] is reported as ~10%.

c1cc2c3c(c1)[C@H]1CCC[C@H]1CN3CCNC2 [Compound 2] was tested, and the “block of apomorphine-induced climbing” value ([2]; Compound 2 3, 10 & 30 mg/kg co-administered with clozapine 3 & 5.4 mg/kg) was “greater block”, the “block of apomorphine-induced climbing” value ([2]; Compound 2 3, 10 & 30 mg/kg co-administered with haloperidol 0.1 & 0.17 mg/kg) was “greater block” and the ED50 ([2]; co-administered with 0.1 mg/kg of haloperidol, mice) was 2.4 mg/kg. It also gave an ED50 ([2]; co-administered with 0.17 mg/kg of haloperidol, mice) of 4.1 mg/kg, an ED50 ([2]; compound alone, Experiment 4, mice) of 27.1 mg/kg and an ED50 [2, 5] of 27.1 mg/kg. The “dose for increased efficacy with co-administration” value ([2]; mice) was 3 mg/kg, the decrease in stereotypy (stereotypy; 30 mg/kg Compound 2 and 0.17 mg/kg haloperidol combined treatment relative to haloperidol alone) was ~30% and the decrease in stereotypy (stereotypy; 30 mg/kg Compound 2 and 5.4 mg/kg clozapine combined treatment) was ~20%. The “potentiation of haloperidol-induced catalepsy” value ([3]; Compound 2 10 mg/kg with haloperidol 0.1 and 0.17 mg/kg) was “failed to potentiate”, the “dose for increased EPS liability with co-administration” value [3] was > 10 mg/kg and the “decrease in avoidance responding” value ([1]; Compound 2 1 mg/kg co-administered with clozapine 5.4 mg/kg, i.p.) was > 60%. For the same compound, the “effect on number of no response trials” value ([1]; Compound 2 1 mg/kg co-administered with clozapine 5.4 mg/kg) was “no adverse effects”, the “decrease in avoidance responding” value ([1]; Compound 2 1 mg/kg co-administered with haloperidol 0.54 mg/kg, i.p.) was > 50% and the “effect on number of no response trials” value ([1]; Compound 2 1 mg/kg co-administered with haloperidol 0.54 mg/kg) was “no adverse effects”.

With CN1CCN(C2=Nc3cc(Cl)ccc3Nc3ccccc32)CC1 [clozapine, 8-chloro-11-(4-methyl-1-piperazinyl)-5H-dibenzo[b,e]-[1,4]-diazepine, reference compound] the “decrease in avoidance responding” value ([1]; administered individually, 5.4 mg/kg i.p., 30 min pretreatment) was ~10%.

With c1cc2c3c(c1)[C@H]1CCC[C@H]1N3CCNC2 [Compound 1] the “block of apomorphine-induced climbing” value ([2]; Compound 1 5.4 & 17 mg/kg co-administered with clozapine 3 & 5.4 mg/kg) was “greater block”, the “block of apomorphine-induced climbing” value ([2]; Compound 1 5.4 & 17 mg/kg co-administered with haloperidol 0.17 & 0.3 mg/kg) was “greater block” and the ED50 [2, 5] was 17 mg/kg. The “dose for increased efficacy with co-administration” value ([2]; mice) was 5.4 mg/kg, the “ED50 for apomorphine block” value ([2]; compound alone, mice, apomorphine 1 mg/kg s.c. 30 min after dosing) was 15.89 mg/kg and the “stereotypy relative to 0.3 haloperidol alone” value (stereotypy; 0.3 mg/kg haloperidol with all doses of Compound 1 (1.7, 5.4, 17 mg/kg)) was “decreased stereotypy”. For the same compound, the decrease in stereotypy (stereotypy; 17 mg/kg Compound 1 and 0.17 mg/kg haloperidol combined treatment group) was < 10%, the decrease in stereotypy (stereotypy; 17 mg/kg Compound 1 and 5.4 mg/kg clozapine combined treatment) was ~13% and the “catalepsy, percent of maximum catalepsy (60 sec on bar)” value ([3]; Compound 1 17 mg/kg with 0.17 and 0.3 mg/kg haloperidol, moderate increase, 30-120 min after dosing) was “up to 30%”. For the same compound, the “dose for increased EPS liability with co-administration” value [3] was ≥ 17 mg/kg, the “potentiation of haloperidol-induced catalepsy” value ([3]; lower doses of Compound 1 (1.7, 5.4 mg/kg) with 0.17 and 0.3 mg/kg haloperidol) was “failed to potentiate catalepsy” and the “decrease in avoidance responding” value ([1]; Compound 1 0.54 mg/kg co-administered with clozapine 5.4 mg/kg, i.p.) was > 70%. The “effect on number of no response trials” value ([1]; Compound 1 0.54 mg/kg co-administered with clozapine 5.4 mg/kg) was “no adverse effects”, the “decrease in avoidance responding” value ([1]; Compound 1 0.54 mg/kg co-administered with haloperidol 0.54 mg/kg, i.p.) was > 70% and the “effect on number of no response trials” value ([1]; Compound 1 0.54 mg/kg co-administered with haloperidol 0.54 mg/kg) was “no adverse effects”. The “decrease in avoidance responding” value [1, 4] was ~10%.
